This note sets out measurements from paper doi:10.1101/2021.09.28.462154v2 (biorxiv, 2022).

Experiment [1] has as its target T1, OR1A1 (Homo sapiens, UniProt Q9P1Q5).
T1 sequence (Q9P1Q5 1-309): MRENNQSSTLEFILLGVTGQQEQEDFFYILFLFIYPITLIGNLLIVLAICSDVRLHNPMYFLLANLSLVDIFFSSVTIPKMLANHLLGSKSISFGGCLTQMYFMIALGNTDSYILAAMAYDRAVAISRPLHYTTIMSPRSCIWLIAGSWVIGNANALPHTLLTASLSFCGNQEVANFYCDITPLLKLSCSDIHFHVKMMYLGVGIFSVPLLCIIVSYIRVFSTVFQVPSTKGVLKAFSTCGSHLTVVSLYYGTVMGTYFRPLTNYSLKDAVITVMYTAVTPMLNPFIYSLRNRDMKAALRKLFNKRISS
The experiment is described as follows: cAMP accumulation. Format: biochemical. (In general: cAMP levels reflect the balance of adenylyl cyclase and phosphodiesterase activity.)

The target of experiment [2] is T2, OR5AN1 (Homo sapiens, UniProt Q8NGI8).
T2 sequence (Q8NGI8 1-311): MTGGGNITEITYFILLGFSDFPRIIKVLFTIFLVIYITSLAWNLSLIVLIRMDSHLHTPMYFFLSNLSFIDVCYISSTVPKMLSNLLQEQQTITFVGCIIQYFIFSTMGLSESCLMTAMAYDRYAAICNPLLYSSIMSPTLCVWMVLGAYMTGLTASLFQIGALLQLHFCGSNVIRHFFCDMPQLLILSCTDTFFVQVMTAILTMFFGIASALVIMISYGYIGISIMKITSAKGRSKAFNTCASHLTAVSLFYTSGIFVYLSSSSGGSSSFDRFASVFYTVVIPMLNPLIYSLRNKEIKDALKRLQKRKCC
As to the kind of experiment: cAMP accumulation. The class given is biochemical.

Usually EC50 stands for the concentration at which the effect is half-maximal. A low value points to a more potent agent. The compound `CCCCCC(=O)C(C)C(C)=O` (centres unmarked) [3-methyl-2,4-nonanedione] gave an EC50 in experiment [1] of 0.388 µM.

In the case of `C[C@@H]1CCCCCCCCCCCCC(=O)C1` [muscone], the concentration for a half-maximal effect (EC50) in experiment [2] was found to be 0.29 µM. This counts as sub-micromolar.
